Experimental data: US10793567B2, “Bicyclic inhibitors of histone deacetylase” (Rodin Therapeutics, Inc., priority 2017, dated 2020)
Where two headings read alike, the source gives them in different places.

What was measured:
HDAC2 [1] = molecular target: T1, HDAC2 (Homo sapiens (Human), UniProt Q92769); assay: HDAC2 enzymatic inhibition assay in SY5Y cell lysate (HDAC-Glo 2); assay type: cell-based; details: SH-SY5Y cells, five hours incubation
Method: SH-SY5Y cells (Sigma) were cultured in Eagle's Modified Essential Medium supplemented with 10% fetal bovine serum and pen/strep. Twenty-four hours prior to compound dosing 20 uL of cells were plated in white 384 well plates at a density of 1,500 cells/well. Compounds were serially diluted in neat DMSO and then diluted 1:100 v/v into media without FBS and mixed. Media was removed from the plated cells and the diluted compounds in serum free media (1% v/v final DMSO) were added and incubated at 37.0 for five hours. Ten uL of HDAC-Glo 2 reagent with 0.1% Triton X-100 was then added, the plate was mixed and allowed to develop at room temperature for 100 minutes. Plates were then read with a Spectramax LMax luminometer employing a 0.4 s integration time. Dose response curves were constructed with normalized data where CI-994 at 100 uM was defined as 100% inhibition and DMSO alone as 0% inhibition.

[2] = test system: human erythroid progenitors (CFU-E, BFU-E); assay: Erythroid CFU assay (colony forming cell assay, bone marrow); assay type: cell-based; details: 14 days in culture
Method: (§1) Compounds were tested to evaluate the potential effects on human erythroid and myeloid progenitors using colony forming cell assays. Clonogenic progenitors of human erythroid (CFU-E, BFU-E), granulocyte-monocyte (CFU-GM) and multipotential (CFU-GEMM) lineages were assessed in a semi-solid methylcellulose-based media formulation containing rhlL-3 (10 ng/mL), rhGM-SCF (10 ng/mL), rhSCF (50 ng/mL) and Epo (3 U/mL).
(§2) Normal human bone marrow light density cells derived from normal bone marrow (NorCal Biologics, California), were stored in the gaseous phase of liquid nitrogen (−152° C.) until required for the assay. On the day of the experiment, the cells were thawed rapidly, the contents of each vial was diluted in 10 mL of Iscove's modified Dulbecco's medium containing 10% fetal bovine serum (IMDM+10% FBS) and washed by centrifugation (approximately 1200 r.p.m. for 10 minutes, room temperature). The supernatant was discarded and the cell pellets resuspended in a known volume of IMDM+10% FBS. A cell count (3% glacial acetic acid) and viability assessment (trypan blue exclusion test) was performed for the bone marrow sample.
(§3) On the day of the experiment, the compounds were dissolved in DMSO to a stock concentration of 10 mM. Serial dilutions were prepared from the stock concentration to achieve concentrations of 2 and 0.4 mM. When added to the methylcellulose-based media at 1:1000 (v/v), the final test concentrations of 10, 2 and 0.4 μM were achieved. Additionally, 5-FU was evaluated at 1.0, 0.1 and 0.01 μg/mL.
(§4) Clonogenic progenitors of the human erythroid (CFU-E and BFU-E) and myeloid (CFU-GM) lineages were set up in the methylcellulose-based media formulations described above. All compounds were added to the medium to give the final desired concentrations (10, 2 and 0.4 μM). 5-Fluorouracil (Sigma Aldrich) was used as a positive control for progenitor proliferation (inhibition of colony growth) and was introduced to the human bone marrow cultures at 1.0, 0.1, and 0.01 μg/mL. Solvent control cultures (containing no compound but 0.1% DMSO) as well as standard controls (containing no compound and no DMSO) were also initiated.
(§5) Human myeloid and erythroid progenitor assays were initiated at 2.0×10^4 cells per culture. Following 14 days in culture, myeloid and erythroid colonies were assessed microscopically and scored by trained personnel. The colonies were divided into the following categories based on size and morphology: CFU-E, BFU-E, CFU-GM and CFU-GEMM.
(§6) The mean±one standard deviation of three replicate cultures was calculated for progenitors of each category (CFU-E, BFU-E, etc.). Two-tailed t-tests were performed to assess if there was a difference in the number of colonies generated between solvent control and treated cultures. Due to the potential subjectivity of colony enumeration, a p value of less than 0.01 is deemed significant. To calculate the concentration of 50% inhibition of colony growth (IC50) for each compound, a dose response curve was generated plotting the log of the compound concentration versus the percentage of control colony growth using XLfit software (IDBS). The concentration of 50% inhibition of colony growth (IC50) was calculated based on the sigmoid curve fit using Dose-Response, One-Site Model formula: y=A+[(B−A)/(1+((C/x)^D))], where A=the initial value (baseline response), B=maximum response, C=center (drug concentration that provokes a response halfway between A and B) and D=slope of the curve at midpoint. Further, plots and additional dose response curves were generated using GraphPad Prism 7.0.
(§7) Erythroid (CFU-E and BFU-E), myeloid (CFU-GM) and multi-potential (CFU-GEMM) colony enumeration was performed by trained personnel. The distribution of colony types as well as general colony and cellular morphology was analyzed. For statistical analysis colony numbers in compound treated cultures were compared to the solvent control cultures. […]

[3] = test system: human myeloid progenitors (CFU-GM); assay: Myeloid CFU assay (colony forming cell assay, bone marrow); assay type: cell-based; details: 14 days in culture
Method: as §1, §2, §3, §4, §5, §6, §7

[4] = Brain and plasma exposure following IV and PO administration to mice; assay type: in vivo; details: mice; for Projected free brain @ 10 mpk / Brain Cmax @ 10 mpk: 10 mg/kg PO; for half-life / clearance: mouse, plasma; for clearance: read-out: IV PK Cl (converted)
Method: Compounds were dosed in mice at either 10 mg/kg or 30 mg/kg PO, and were dosed at 1 mg/kg IV. Three animals for collection at each time point for plasma via bleeding at 0.25, 0.5, 1, 4, 12 and 24 h. Terminal bleeding for plasma and sampling for brain at 0.25, 0.5, 1, 4, 12 and 24 h (also three animals per brain exposure time point group). Total of six time points for plasma and six time points for brain.
Plasma: The animal was restrained manually at the designated time points, approximately 150 μL blood/time point was collected into K2EDTA tube via retro orbital puncture or cardiac puncture under anesthesia with Isoflurane. The blood sample was centrifuged (2000 g, 4° C., 5 min) to generate plasma within 30 min after bleeding.
Brain: At the designated time points, a mid-line incision was made in the animals scalp and the skin was retracted. Using small bone cutters and rongeurs, removed the skull overlying the brain. Removed the brain using a spatula and rinse with cold saline. Placed the brain in screw-top tubes, and then stored the tubes under −70° C. until analysis.

HDAC2 [5] = molecular target: T1, HDAC2; assay: HDAC2 enzymatic assay (Caliper LabChip, peptide deacetylation); assay type: biochemical; details: 17 hours, 25° C.
Method: The following describes an assay protocol for measuring the deacetylation of a peptide substrate by the enzymes HDAC2 or HDAC1. Enzyme, substrate, and cofactors are combined in a well of a microtiter plate and incubated for […] at 25° C. At the end of the incubation, the reaction is quenched by the addition of an SDS-containing buffer. Substrate and product are separated and quantified electrophoretically using the microfluidic-based LabChip 3000 Drug Discovery System from Caliper Life Sciences. The peptide substrate used in this assay is FAM-TSRHK(AC)KL-CONH2 (FAM is carboxyfluorescein). Peptide should be >98% purity by Capillary Electrophoresis. • 1. To a well of a 384-well plate, add 5 μL of 2× enzyme buffer. Using Labcyte Echo 550, add 100 nl compound. Enzyme and compound may be pre-incubated at this time if desired. • 2. Add 5 μL of 2× substrate buffer. • 3. Incubate plate at 25° C. for 17 hours. • 4. Terminate reaction by adding 40 μL of 1.55× stop buffer. • 5. Create job on a Caliper LabChip® 3000 Drug Discovery System. • 6. […]
Substrate and product peptides present in each sample are separated electrophoretically using the LabChip 3000 capillary electrophoresis instrument. As substrate and product peptides are separated, two peaks of fluorescence are observed. Change in the relative fluorescence intensity of the substrate and product peaks is the parameter measured, reflecting enzyme activity. Capillary electrophoregramms (RDA acquisition files) are analyzed using HTS Well Analyzer software (Caliper Life Sciences). The […] in each sample is determined as the product to sum ratio (PSR): P/(S+P), where P is the peak height of the product peptide and S is the peak height of the substrate peptide. For each compound, enzyme activity is measured at various concentrations (12 concentrations of compound spaced by 3× dilution intervals). […]
The IC50 values of inhibitors are determined by fitting the inhibition curves (Pinh versus inhibitor concentration) by 4 parameter sigmoidal dose-response model using XLfit 4 software (IBDS). […]

HDAC1 = HDAC1 (Homo sapiens (Human), UniProt Q13547); assay: HDAC1 enzymatic assay (Caliper LabChip, peptide deacetylation); assay type: biochemical; details: 17 hours, 25° C.
Method: The following describes an assay protocol for measuring the deacetylation of a peptide substrate by the enzymes HDAC2 or HDAC1. Enzyme, substrate, and cofactors are combined in a well of a microtiter plate and incubated for […] at 25° C. At the end of the incubation, the reaction is quenched by the addition of an SDS-containing buffer. Substrate and product are separated and quantified electrophoretically using the microfluidic-based LabChip 3000 Drug Discovery System from Caliper Life Sciences. The peptide substrate used in this assay is FAM-TSRHK(AC)KL-CONH2 (FAM is carboxyfluorescein). Peptide should be >98% purity by Capillary Electrophoresis. • 1. To a well of a 384-well plate, add 5 μL of 2× enzyme buffer. Using Labcyte Echo 550, add 100 nl compound. Enzyme and compound may be pre-incubated at this time if desired. • 2. Add 5 μL of 2× substrate buffer. • 3. Incubate plate at 25° C. for 17 hours. • 4. Terminate reaction by adding 40 μL of 1.55× stop buffer. • 5. Create job on a Caliper LabChip® 3000 Drug Discovery System. • 6. Load the plate and start electrophoresis using blue laser (480 nm) for excitation and green CCD (520 nm) for detection (CCD2). Reaction time=17 hours; Reaction temperature=25° C.
1% DMSO (from compound) 1 μM FAM-TSRHK(AC)KL-CONH2 5 nM HDAC Enzyme (specific activity may vary from lot-to-lot, and enzyme concentration may need to be adjusted to yield˜10-20% conversion of substrate to product).
Substrate and product peptides present in each sample are separated electrophoretically using the LabChip 3000 capillary electrophoresis instrument. As substrate and product peptides are separated, two peaks of fluorescence are observed. Change in the relative fluorescence intensity of the substrate and product peaks is the parameter measured, reflecting enzyme activity. Capillary electrophoregramms (RDA acquisition files) are analyzed using HTS Well Analyzer software (Caliper Life Sciences). The […] in each sample is determined as the product to sum ratio (PSR): P/(S+P), where P is the peak height of the product peptide and S is the peak height of the substrate peptide. For each compound, enzyme activity is measured at various concentrations (12 concentrations of compound spaced by 3× dilution intervals). Negative control samples (0%-inhibition in the absence of inhibitor) and positive control samples (100%-inhibition, in the presence of 20 mM EDTA) are assembled in replicates of four and are used to calculate %-inhibition values for each compound at each concentration. Percent inhibition (Pinh) is determined using following equation: Pinh=(PSR0%−PSRinh)/(PSR0%−PSR100%)*100, where PSRinh is the product sum ratio in the presence of inhibitor, PSR0% is the average product sum ration in the absence of inhibitor and PSR100% is the average product sum ratio in 100%-inhibition control samples.
The IC50 values of inhibitors are determined by fitting the inhibition curves (Pinh versus inhibitor concentration) by 4 parameter sigmoidal dose-response model using XLfit 4 software (IBDS).
In the table, “A” indicates a […] of between 0.1 μM and 0.5 μM and “B” a Kd value of greater than 0.5 μM and less than or equal to 5.0 μM.

[6] = iv, 1 mg/kg, 1 mg/kg IV, read-out: IV PK T1/2 (converted)
[7] = po, 10 mg/kg, PO, read-out: PO T1/2 (converted)

T1 sequence (Q92769 whole entry): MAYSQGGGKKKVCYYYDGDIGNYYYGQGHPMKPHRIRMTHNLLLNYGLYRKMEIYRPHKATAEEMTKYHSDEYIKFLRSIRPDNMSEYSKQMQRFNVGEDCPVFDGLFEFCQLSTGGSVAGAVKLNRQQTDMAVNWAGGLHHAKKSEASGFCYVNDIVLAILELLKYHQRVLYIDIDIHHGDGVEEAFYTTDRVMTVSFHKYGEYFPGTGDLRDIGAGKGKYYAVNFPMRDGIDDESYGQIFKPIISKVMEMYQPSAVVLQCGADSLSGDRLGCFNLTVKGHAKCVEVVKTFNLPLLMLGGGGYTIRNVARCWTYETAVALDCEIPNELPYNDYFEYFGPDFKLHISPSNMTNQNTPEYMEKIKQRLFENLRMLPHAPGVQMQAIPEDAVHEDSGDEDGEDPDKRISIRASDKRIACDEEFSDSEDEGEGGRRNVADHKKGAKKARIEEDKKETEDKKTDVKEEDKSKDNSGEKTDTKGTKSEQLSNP
Sequence of HDAC1 (Q13547 whole entry): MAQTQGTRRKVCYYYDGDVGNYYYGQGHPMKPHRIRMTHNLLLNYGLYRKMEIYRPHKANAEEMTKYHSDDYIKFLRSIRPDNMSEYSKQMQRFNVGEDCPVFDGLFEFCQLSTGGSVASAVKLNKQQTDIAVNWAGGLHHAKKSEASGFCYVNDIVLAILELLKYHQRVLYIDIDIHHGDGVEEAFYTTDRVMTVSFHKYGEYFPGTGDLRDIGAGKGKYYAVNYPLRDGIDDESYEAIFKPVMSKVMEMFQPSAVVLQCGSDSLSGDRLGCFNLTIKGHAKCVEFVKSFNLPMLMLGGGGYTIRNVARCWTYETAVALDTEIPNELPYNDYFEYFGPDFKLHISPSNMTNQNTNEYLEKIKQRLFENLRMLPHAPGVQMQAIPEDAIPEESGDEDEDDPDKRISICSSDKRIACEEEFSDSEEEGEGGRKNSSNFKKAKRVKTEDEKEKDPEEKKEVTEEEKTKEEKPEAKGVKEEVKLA

IC50 (HDAC2 [1]) [nM] | Erythroid % control @ 10 uM dose [2] [%] | Myeloid % control @ 10 uM dose [3] [%] | half-life [4, 6] [h] | half-life [4, 7] [h] | clearance ([4]; 1 mg/kg IV) [mL/min/kg] | SMILES | also measured
100 to 1000 | 53 | 96 | 1.86 | 2.12 | 8.93 | Cc1ncc(-c2ccc(N)c(NC(=O)N3Cc4cn(C)nc4C3)n2)s1 [Compound 4] | Projected free brain @ 10 mpk [4]: 0.479 µM; Brain Cmax @ 10 mpk ([4]; brain): 324 ng/g
100 to 1000 | 94 | 103 | 7.53 | 2.9 | 17.8 | Cn1cc2c(n1)CN(C(=O)Nc1nc(-c3cccnc3)ccc1N)C2 [Compound 11] | Projected free brain @ 10 mpk [4]: 0.664 µM; Brain Cmax @ 10 mpk ([4]; brain): 369 ng/g
100 to 1000 |  |  |  |  |  | Nc1ccc(-c2cccnc2)nc1NC(=O)N1Cc2cnc(CC(F)F)cc2C1 [Compound 15] | 
 | 15.7 | 30.4 |  |  |  | Cn1cc2c(n1)CN(C(=O)Nc1nc(-c3ccc(F)cc3)ccc1N)C2 [Comparator 2, reference compound] | 
> 1500 |  |  |  |  |  | Nc1ccc(-c2cccnc2)nc1NC(=O)N1Cc2cnc(C(F)F)cc2C1 [Compound 16] | 

Second part, the compound before the results:

SMILES | IC50 (HDAC2 [1]) [nM] | Erythroid % control @ 10 uM dose [2] [%] | Myeloid % control @ 10 uM dose [3] [%] | half-life [4, 6] [h] | half-life [4, 7] [h] | clearance ([4]; 1 mg/kg IV) [mL/min/kg] | also measured
Cc1cc2c(cn1)CN(C(=O)Nc1nc(-c3ccc(F)cc3)ccc1N)C2 [Comparator 3, reference compound] |  | 25.7 | 66.1 |  |  |  | 
Nc1ccc(-c2ccc(F)cc2)nc1NC(=O)N1Cc2cncnc2C1 [Comparator 1, reference compound] |  | 47.1 | 83.9 |  |  |  | Projected free brain @ 10 mpk (uM) (*scaled for comparison) ([4]; dosed 30 mg/kg PO, scaled to 10 mg/kg PO): 0.111* uM; Brain Cmax @ 10 mpk ng/g (*scaled for comparison) ([4]; dosed 30 mg/kg PO, scaled to 10 mg/kg PO, brain): 158* ng/g
Nc1ccc(-c2cccs2)nc1NC(=O)N1Cc2cncnc2C1 [Comparator 6] |  |  |  | 0.152 | 0.557 | 139 | 
Cc1nc2c(n1C)CN(C(=O)Nc1nc(-c3ccc(F)cc3)ccc1N)C2 [Compound 7] | 100 to 1000 |  |  | 3.06 | 2.95 | 28.5 | Projected free brain @ 10 mpk [4]: 0.050 µM; Brain Cmax @ 10 mpk ([4]; brain): 102 ng/g
Nc1ccc(-c2ccc(F)cc2F)nc1NC(=O)N1Cc2cn(C3COC3)nc2C1 [Compound 6] | 100 to 1000 |  |  |  |  |  | IC50 (HDAC2 [5]): 500 to 5000 nM; IC50 (HDAC1): 500 to 5000 nM
COCc1cc2c(cn1)CN(C(=O)Nc1nc(-c3ccc(F)cc3)ccc1N)C2 [Comparator 5, reference compound] |  | 22.9 | 58.9 |  |  |  | 
